In PMC8160793, “Potent Antimicrobial and Antibiofilm Activities of Feleucin-K3 Analogs Modified by α-(4-Pentenyl)-Ala against Multidrug-Resistant Bacteria” (Biomolecules, 2021):
≈ marks a conversion by molar mass, not a printed value. Square brackets hold non-standard residues; d marks the D form. Ends that are not written are not given here. Peptide text beside a SMILES is read from it. ξ: configuration not given here. ξαMeGly(pent-4-enyl) = C=CCCCC(C)(N)C(=O)O

Legend:
A. baumannii 5444 = assay type: cell-based, Acinetobacter baumannii; details: 5444, 18 h
Protocol: (§1) The minimum inhibitory concentration (MIC) of the Feleucin-K3 analogs was tested by the broth microdilution method. Sensitive bacteria and drug-resistant bacteria were diluted to 1 × 10^6 CFU/mL, according to the McFarland standards. Bacterial suspension and peptide solutions (8–128 μg/mL) were incubated at 37 °C for 18 h. The minimum concentration without obvious bacterial growth was the MIC of the peptides. The stability of the analogs in a physiological salt environment was also investigated. In brief, salt powder (450-mM NaCl) was dissolved in deionized water, and the following investigational steps were the same as those described before. The above steps were repeated several times, until the same value was obtained three times.

A. baumannii 91199 = assay type: cell-based, Acinetobacter baumannii; details: 91199, 18 h
Protocol: as §1

A. baumannii 9840 = assay type: cell-based, Acinetobacter baumannii; details: 9840, 18 h
Protocol: as §1

A. baumannii 822144 = assay type: cell-based, Acinetobacter baumannii; details: 822144, 18 h
Protocol: as §1

A. baumannii 91869 = assay type: cell-based, Acinetobacter baumannii; details: 91869, 18 h
Protocol: as §1

A. baumannii 91152 = assay type: cell-based, Acinetobacter baumannii; details: 91152, 18 h
Protocol: as §1

A. baumannii 91944 = assay type: cell-based, Acinetobacter baumannii; details: 91944, 18 h
Protocol: as §1

A. baumannii 9896 = assay type: cell-based, Acinetobacter baumannii; details: 9896, 18 h
Protocol: as §1

A. baumannii 9234 = assay type: cell-based, Acinetobacter baumannii; details: 9234, 18 h
Protocol: as §1

A. baumannii 9828 = assay type: cell-based, Acinetobacter baumannii; details: 9828, 18 h
Protocol: as §1

A. baumannii 92359 = assay type: cell-based, Acinetobacter baumannii; details: 92359, 18 h
Protocol: as §1

A. baumannii 91810 = assay type: cell-based, Acinetobacter baumannii; details: 91810, 18 h
Protocol: as §1

A. baumannii 8309 = assay type: cell-based, Acinetobacter baumannii; details: 8309, 18 h
Protocol: as §1

A. baumannii ATCC 19606 = assay type: cell-based, Acinetobacter baumannii; details: ATCC 19606, 18 h
Protocol: as §1

A. baumannii 97830 = assay type: cell-based, Acinetobacter baumannii; details: 97830, 18 h
Protocol: as §1

A. baumannii 9336 = assay type: cell-based, Acinetobacter baumannii; details: 9336, 18 h
Protocol: as §1

A. baumannii 9331 = assay type: cell-based, Acinetobacter baumannii; details: 9331, 18 h
Protocol: as §1

A. baumannii 91105 = assay type: cell-based, Acinetobacter baumannii; details: 91105, 18 h
Protocol: as §1

A. baumannii 98110 = assay type: cell-based, Acinetobacter baumannii; details: 98110, 18 h
Protocol: as §1

A. baumannii 9236 = assay type: cell-based, Acinetobacter baumannii; details: 9236, 18 h
Protocol: as §1

A. baumannii 51243 = assay type: cell-based, Acinetobacter baumannii; details: 51243, 18 h
Protocol: as §1

MRSA 71 = assay type: cell-based, Staphylococcus aureus; details: 71, 18 h
Protocol: as §1

MRSA 52 = assay type: cell-based, Staphylococcus aureus; details: 52, 18 h
Protocol: as §1

MRSA 54 = assay type: cell-based, Staphylococcus aureus; details: 54, 18 h
Protocol: as §1

S. aureus 725 = assay type: cell-based, Staphylococcus aureus; details: 725, 18 h
Protocol: as §1

MRSA 23 = assay type: cell-based, Staphylococcus aureus; details: 23, 18 h
Protocol: as §1

MRSA 74 = assay type: cell-based, Staphylococcus aureus; details: 74, 18 h
Protocol: as §1

S. aureus 794 = assay type: cell-based, Staphylococcus aureus; details: 794, 18 h
Protocol: as §1

MRSA 48 = assay type: cell-based, Staphylococcus aureus; details: 48, 18 h
Protocol: as §1

MRSA 75 = assay type: cell-based, Staphylococcus aureus; details: 75, 18 h
Protocol: as §1

MRSA 51 = assay type: cell-based, Staphylococcus aureus; details: 51, 18 h
Protocol: as §1

S. aureus ATCC 25923 = assay type: cell-based, Staphylococcus aureus; details: ATCC 25923, 18 h
Protocol: as §1

MRSA 936 = assay type: cell-based, Staphylococcus aureus; details: 936, 18 h
Protocol: as §1

MRSA ATCC 33591 = assay type: cell-based, Staphylococcus aureus; details: ATCC 33591, 18 h
Protocol: as §1

MRSA 113 = assay type: cell-based, Staphylococcus aureus; details: 113, 18 h
Protocol: as §1

E. coli ATCC 25922 = assay type: cell-based; details: ATCC 25922, 18 h
Protocol: as §1

P. aeruginosa ATCC 27853 = assay type: cell-based, Pseudomonas aeruginosa; details: ATCC 27853, 18 h
Protocol: as §1

[1] = tested on: multidrug-resistant A. baumannii; design: method as in PMID 32590058; details: previous studies; cited from earlier work
A. baumannii = assay: Resistance development assay, sequential passaging; assay type: cell-based, Acinetobacter baumannii; details: serial passage at sub-MIC, 20 passages
Protocol: Serial passage and MIC determination were used to explore whether the bacteria developed drug resistance. On the first day, the MICs of the peptides were determined as described above. The next day, the bacterial suspension of sub-MIC concentration was cultivated to the mid-log phase. The MICs of the peptides were detected again, and this process was repeated for 20 days. The MICs of the antibiotics, including amoxicillin (AML), ceftazidime (CAZ) and imipenem, were also determined as controls.

mouse RBCs = details: cited from earlier work
Description: The hemolysis rates of K70 were less than 1%, even at the maximum c ...

MIC, A. baumannii 5444 (A. baumannii 5444) [µg/mL]	MIC, A. baumannii 91199 (A. baumannii 91199) [µg/mL]	MIC, A. baumannii 9840 (A. baumannii 9840) [µg/mL]	MIC, A. baumannii 822144 (A. baumannii 822144) [µg/mL]	MIC, A. baumannii 91869 (A. baumannii 91869) [µg/mL]	MIC, A. baumannii 91152 (A. baumannii 91152) [µg/mL]	MIC, A. baumannii 91944 (A. baumannii 91944) [µg/mL]	MIC, A. baumannii 9896 (A. baumannii 9896) [µg/mL]	MIC, A. baumannii 9234 (A. baumannii 9234) [µg/mL]	MIC, A. baumannii 9828 (A. baumannii 9828) [µg/mL]	MIC, A. baumannii 92359 (A. baumannii 92359) [µg/mL]	MIC, A. baumannii 91810 (A. baumannii 91810) [µg/mL]	MIC, A. baumannii 8309 (A. baumannii 8309) [µg/mL]	MIC, A. baumannii 97830 (A. baumannii 97830) [µg/mL]	MIC, A. baumannii 9336 (A. baumannii 9336) [µg/mL]	MIC, A. baumannii 9331 (A. baumannii 9331) [µg/mL]	MIC, A. baumannii 91105 (A. baumannii 91105) [µg/mL]	MIC, A. baumannii 98110 (A. baumannii 98110) [µg/mL]	MIC, A. baumannii 9236 (A. baumannii 9236) [µg/mL]	MIC, A. baumannii 51243 (A. baumannii 51243) [µg/mL]	Molecule	other results
8 (≈ 7.11 µM)	16 (≈ 14.2 µM)	8 (≈ 7.11 µM)	16 (≈ 14.2 µM)	8 (≈ 7.11 µM)	16 (≈ 14.2 µM)	16 (≈ 14.2 µM)	8 (≈ 7.11 µM)	8 (≈ 7.11 µM)	16 (≈ 14.2 µM)	16 (≈ 14.2 µM)	16 (≈ 14.2 µM)	8 (≈ 7.11 µM)	32 (≈ 28.4 µM)	8 (≈ 7.11 µM)	64 (≈ 56.9 µM)	8 (≈ 7.11 µM)	16 (≈ 14.2 µM)	16 (≈ 14.2 µM)	32 (≈ 28.4 µM)	C=CCCCC(C)(NC(=O)[C@H](CC(C)C)NC(=O)[C@H](CC(C)C)NC(=O)[C@H](CCCCN)NC(=O)[C@H](CC(C)C)NC(=O)[C@@H](N)Cc1ccccc1)C(=O)N[C@@H](CCCCN)C(=O)N[C@@H](CC(C)C)C(=O)N[C@@H](CC(C)C)C(N)=O (stereo partly shown) [Feleucin-K71] (H-FLKLL[ξαMeGly(pent-4-enyl)]KLL-NH2)	MIC, A. baumannii ATCC 19606 (A. baumannii ATCC 19606): 4 µg/mL (≈ 3.55 µM); MIC, MRSA 71 (MRSA 71): 4 µg/mL (≈ 3.55 µM); MIC, MRSA 52 (MRSA 52): 4 µg/mL (≈ 3.55 µM); MIC, MRSA 54 (MRSA 54): 4 µg/mL (≈ 3.55 µM); MIC, S. aureus 725 (S. aureus 725): 4 µg/mL (≈ 3.55 µM); MIC, MRSA 23 (MRSA 23): 4 µg/mL (≈ 3.55 µM); MIC, MRSA 74 (MRSA 74): 4 µg/mL (≈ 3.55 µM); MIC, S. aureus 794 (S. aureus 794): 16 µg/mL (≈ 14.2 µM); MIC, MRSA 48 (MRSA 48): 4 µg/mL (≈ 3.55 µM); MIC, MRSA 75 (MRSA 75): 4 µg/mL (≈ 3.55 µM); MIC, MRSA 51 (MRSA 51): 4 µg/mL (≈ 3.55 µM); MIC, S. aureus ATCC 25923 (S. aureus ATCC 25923): 4 µg/mL (≈ 3.55 µM); MIC, MRSA 936 (MRSA 936): 4 µg/mL (≈ 3.55 µM); MIC, MRSA ATCC 33591 (MRSA ATCC 33591): 4 µg/mL (≈ 3.55 µM); MIC, MRSA 113 (MRSA 113): 4 µg/mL (≈ 3.55 µM); MIC, E. coli ATCC 25922 (E. coli ATCC 25922): 16 µg/mL (≈ 14.2 µM); MIC, P. aeruginosa ATCC 27853 (P. aeruginosa ATCC 27853): 8 µg/mL (≈ 7.11 µM)
–	–	–	–	–	–	–	–	–	–	–	–	–	–	–	–	–	–	–	–	C[C@@H](O)[C@H]1C(=O)N2C(C(=O)O)=C(SCCN=CN)C[C@H]12 [imipenem]	MIC against multidrug-resistant A. baumannii [1]: ≤ 64 µg/mL; maximum fold increase of MIC, A. baumannii (A. baumannii): ≤ 16 fold
8	8	8	8	8	8	8	8	8	16	8	8	8	8	8	16	8	8	16	8	FLKLLKKLL-NH2 [Feleucin-K3]	MIC, MRSA 71 (MRSA 71): 8 µg/mL; MIC, MRSA 52 (MRSA 52): 8 µg/mL; MIC, MRSA 54 (MRSA 54): 8 µg/mL; MIC, S. aureus 725 (S. aureus 725): 8 µg/mL; MIC, MRSA 23 (MRSA 23): 8 µg/mL; MIC, MRSA 74 (MRSA 74): 8 µg/mL; MIC, S. aureus 794 (S. aureus 794): 16 µg/mL; MIC, MRSA 48 (MRSA 48): 8 µg/mL; MIC, MRSA 75 (MRSA 75): 8 µg/mL; MIC, MRSA 51 (MRSA 51): 8 µg/mL; MIC, MRSA 936 (MRSA 936): 8 µg/mL; MIC, MRSA ATCC 33591 (MRSA ATCC 33591): 8 µg/mL; MIC, MRSA 113 (MRSA 113): 8 µg/mL; hemolytic rate at 256 µg/mL (mouse RBCs): more than 40%
